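The compound was tested at five concentrations on cells cultured in 96-well plates, with a 48-hour exposure period. GI50 = concentration required for 50% inhibition of growth.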 Active and inactive are the calls of the source. No stated cut-off is given here; in the data, active = GI50 up to about 1.1 µM and inactive = higher.

Some test systems named below: CCRF-CEM; DU-145; HCC 2998; HOP-62; MOLT-4; NCI-H23; NCI/ADR-RES; OVCAR-3; PC-3; RXF 393; SF-268; SF-539; SK-MEL-28; SNB-19; SNB-75; SR; SW-620; UACC-62; UO-31; CAKI-1.
Experiment in all cases: NCI-60 cell line screen, 48 h

Regarding `COc1cc(COC(=O)N2CC=CC2C(=O)O)c([N+](=O)[O-])cc1OC` (stereo unspecified), the GI50 in the assay with CCRF-CEM, in the assay with DU-145, with HCC 2998, in the assay with HOP-62, with MOLT-4 and with NCI-H23 was > 100 µM (inactive) each time. The GI50 in the assay with NCI/ADR-RES, in the assay on OVCAR-3, in the assay on PC-3, in the assay with RXF 393, in the assay with SF-268 and in the assay on SF-539 was > 100 µM (inactive) each time. For the same compound, the GI50 in the assay with SK-MEL-28, in the assay with SNB-19, with SNB-75, in the assay on SR, in the assay with SW-620 and in the assay on UACC-62 was > 100 µM (inactive) throughout. Further, the GI50 with UO-31 was > 100 µM (inactive).

As to `O/N=C/C1c2ccccc2-c2ccccc21`, the GI50 in the assay on CAKI-1 is 14 µM (inactive); in the assay on CCRF-CEM it was 19.5 µM (inactive); in the assay with DU-145, 20.8 µM (inactive); with HCC 2998 it was 15.9 µM (inactive); in the assay on HOP-62, 17.9 µM (inactive); in the assay on MOLT-4 it was 24 µM (inactive). Moreover, the GI50 in the assay on NCI-H23 is 17.9 µM (inactive); with NCI/ADR-RES, 16.8 µM (inactive); with OVCAR-3, 16.1 µM (inactive); in the assay with PC-3, 17.2 µM (inactive); with RXF 393, 19.5 µM (inactive); with SF-268, 15.3 µM (inactive). In addition, the GI50 in the assay with SF-539 was 16.2 µM (inactive); in the assay with SK-MEL-28, 15.7 µM (inactive); with SNB-19 it was 18.4 µM (inactive); in the assay with SR, 23.2 µM (inactive); with SW-620, 16.6 µM (inactive); in the assay with UACC-62 it was 15 µM (inactive). Also, in the assay on UO-31, the GI50 was 15.1 µM (inactive).

Turning to `O=C(NCCCl)NCc1ccccc1`, the GI50 with CAKI-1, in the assay on CCRF-CEM, in the assay on DU-145, with HCC 2998, with HOP-62 and in the assay with MOLT-4 was > 100 µM (inactive) in each case. In addition, the GI50 in the assay with NCI-H23, in the assay on NCI/ADR-RES, in the assay on OVCAR-3, with PC-3, in the assay with RXF 393 and with SF-268 was > 100 µM (inactive) throughout. Besides, the GI50 in the assay on SK-MEL-28, with SNB-19, in the assay on SNB-75, with SR, with SW-620 and in the assay with UACC-62 was > 100 µM (inactive) in each case. Moreover, in the assay on UO-31, the GI50 is > 100 µM (inactive).

In the case of `CS(=O)(=O)O[C@H]1CN2C[C@@H](O)[C@@H](O)[C@H]2[C@H]1CO.[B]`, the GI50 with CAKI-1 is > 100 µM (inactive); in the assay with CCRF-CEM, 0.333 µM (active); with DU-145, > 100 µM (inactive); in the assay with HCC 2998, > 100 µM (inactive); with HOP-62, > 100 µM (inactive); in the assay on MOLT-4, > 100 µM (inactive). Further, the GI50 with NCI-H23, in the assay on NCI/ADR-RES, in the assay with OVCAR-3, in the assay with PC-3, in the assay on RXF 393 and with SF-268 was > 100 µM (inactive) each time. Besides, the GI50 in the assay with SF-539, in the assay on SK-MEL-28, with SNB-19, with SR, with SW-620 and in the assay on UACC-62 was > 100 µM (inactive) in each case. For the same compound, the GI50 in the assay with UO-31 was > 100 µM (inactive).

For the compound `NS(=O)(=O)c1ccc(Nc2c3ccccc3nc3c(C(=O)NC(CO)(CO)CO)cccc23)cc1`, the GI50 in the assay on CAKI-1 was 0.218 µM (active); in the assay on CCRF-CEM, 0.0557 µM (active); with DU-145, 0.194 µM (active); in the assay with HCC 2998, 0.212 µM (active); with HOP-62 it was 0.178 µM (active); with MOLT-4 it was 0.0468 µM (active). In addition, the GI50 with NCI-H23 is 0.15 µM (active); in the assay with NCI/ADR-RES, 0.769 µM (active); in the assay with OVCAR-3 it was 0.15 µM (active); with PC-3, 0.226 µM (active); in the assay with RXF 393, 0.185 µM (active); in the assay with SF-268, 0.17 µM (active). Besides, the GI50 was 0.204 µM (active) in the assay with SF-539; 0.242 µM (active) with SK-MEL-28; 0.217 µM (active) in the assay on SNB-19; 0.334 µM (active) with SR; 0.163 µM (active) with SW-620; 0.138 µM (active) in the assay with UACC-62. Besides, the GI50 in the assay on UO-31 is 0.171 µM (active).

Take `NC1=NC(=O)[C@H](CSCc2ccccc2)N1C(=O)OCc1ccccc1`: the GI50 in the assay on CAKI-1, in the assay with DU-145, in the assay on HCC 2998, in the assay on HOP-62, in the assay with MOLT-4 and with NCI-H23 was > 100 µM (inactive) throughout. In addition, the GI50 in the assay with NCI/ADR-RES, with OVCAR-3, in the assay on PC-3, in the assay with RXF 393, in the assay with SF-268 and in the assay with SNB-19 was > 100 µM (inactive) in each case. Also, the GI50 in the assay on SNB-75, in the assay with SR, in the assay with SW-620, in the assay on UACC-62 and with UO-31 was > 100 µM (inactive) throughout.

Consider `C/C=C/COc1cc(NC(=S)OC(C)C)ccc1Cl.C/C=C\COc1cc(NC(=S)OC(C)C)ccc1Cl`, for which the GI50 is 4.06 µM (inactive) with CAKI-1; 25.3 µM (inactive) in the assay on CCRF-CEM; 26.5 µM (inactive) with DU-145; 16.1 µM (inactive) with HCC 2998; 20 µM (inactive) with HOP-62; 14.8 µM (inactive) in the assay with MOLT-4. Besides, the GI50 was 16.9 µM (inactive) in the assay on NCI-H23; 16 µM (inactive) in the assay with NCI/ADR-RES; 18.5 µM (inactive) with OVCAR-3; 16.3 µM (inactive) in the assay on PC-3; 14.9 µM (inactive) with RXF 393; 17.7 µM (inactive) in the assay on SF-268. In addition, the GI50 is 19.8 µM (inactive) in the assay on SF-539; 17.6 µM (inactive) in the assay with SK-MEL-28; 20.7 µM (inactive) in the assay with SNB-19; 16.8 µM (inactive) with SR; 17.1 µM (inactive) in the assay on SW-620; 15.8 µM (inactive) in the assay on UACC-62. Besides, the GI50 in the assay on UO-31 is 12 µM (inactive).

In the case of `CC(=O)NC(Cc1c[nH]cn1)C(=O)N1CCCC1C(N)=O` (stereo unspecified), the GI50 with CAKI-1, with CCRF-CEM, in the assay on DU-145, in the assay with HCC 2998, with HOP-62 and with MOLT-4 was > 100 µM (inactive) in each case. The GI50 with NCI-H23, with NCI/ADR-RES, in the assay with OVCAR-3, with PC-3, in the assay on RXF 393 and in the assay on SF-268 was > 100 µM (inactive) throughout. For the same compound, the GI50 in the assay on SK-MEL-28, with SNB-19, in the assay on SNB-75, in the assay on SR, in the assay with SW-620 and with UACC-62 was > 100 µM (inactive) in each case. Also, in the assay on UO-31, the GI50 is > 100 µM (inactive).

Take `COC1OC(C)C(NC(=O)OCC(Cl)(Cl)Cl)C2OC(C)(C)OC12` (stereo unspecified): the GI50 in the assay with CAKI-1, in the assay with CCRF-CEM, in the assay on DU-145, in the assay on HCC 2998, in the assay with HOP-62 and in the assay on MOLT-4 was > 100 µM (inactive) each time. In addition, the GI50 in the assay with NCI-H23, in the assay on NCI/ADR-RES, in the assay on OVCAR-3, in the assay on PC-3, with RXF 393 and in the assay on SF-268 was > 100 µM (inactive) each time. Further, the GI50 in the assay with SF-539, in the assay with SK-MEL-28, in the assay with SNB-19, with SR, in the assay on SW-620 and in the assay on UACC-62 was > 100 µM (inactive) in each case. The GI50 in the assay on UO-31 is > 100 µM (inactive).

On to `CN(C)c1ccc(C(c2ccc(N(C)C)cc2)c2ccc([N+](=O)[O-])cc2)cc1`, for which the GI50 with CAKI-1, with CCRF-CEM, in the assay on DU-145, with HCC 2998, in the assay on HOP-62 and in the assay on MOLT-4 was > 100 µM (inactive) throughout. Besides, the GI50 with NCI-H23, in the assay on NCI/ADR-RES, in the assay with OVCAR-3, with PC-3, in the assay with RXF 393 and in the assay with SF-268 was > 100 µM (inactive) in each case. The GI50 is > 100 µM (inactive) in the assay on SF-539; > 100 µM (inactive) with SK-MEL-28; > 100 µM (inactive) with SNB-19; 90.6 µM (inactive) in the assay on SR; > 100 µM (inactive) with SW-620; > 100 µM (inactive) in the assay with UACC-62. The GI50 with UO-31 was > 100 µM (inactive).

With `CCCNC(=O)Nc1ccc2c(c1)Cc1cc(N(CCCl)CCCl)ccc1-2`, the GI50 in the assay on CAKI-1 was 22.4 µM (inactive); with CCRF-CEM, 58.3 µM (inactive); in the assay on DU-145 it was 14.6 µM (inactive); in the assay with HCC 2998 it was 28.2 µM (inactive); in the assay with HOP-62, 81.5 µM (inactive); with NCI-H23 it was 36.1 µM (inactive). In addition, the GI50 with NCI/ADR-RES is 36.2 µM (inactive); with OVCAR-3 it was 22.1 µM (inactive); in the assay with PC-3, 25.2 µM (inactive); in the assay with RXF 393 it was 15.5 µM (inactive); in the assay with SF-268, 21.8 µM (inactive); in the assay on SF-539, 5.53 µM (inactive). Further, the GI50 was 11.5 µM (inactive) in the assay with SK-MEL-28; 19.2 µM (inactive) in the assay with SNB-19; 1.32 µM (inactive) with SR; 28.6 µM (inactive) in the assay with SW-620; 21.9 µM (inactive) in the assay with UACC-62; 17.4 µM (inactive) in the assay with UO-31.
